Results published in patent publication US20080051463A1, “ANTHRACENE COMPOUNDS AND THEIR USE FOR TREATING BENIGN AND MALIGNANT TUMOR DISORDERS” (AETERNA ZENTARIS GmbH, priority 2006, published 2008).
Values after ≈ are worked out from the molar mass of the structure shown. Values joined by “and” are separate entries in the source; they are usually repeats but may differ in a detail not shown here. Equal entries are not always repeated.

Assays:
[1] = test system: lung carcinoma cell line NCI-H460; assay: Proliferation test (cellular dehydrogenase activity), NCI-H460; assay type: cell-based; conditions: Homo sapiens
Text: (§1) The antiproliferative activity of the compounds 1, 2, 4, 6, 7, 9, 10, 11, 12 and 13 according to the invention was investigated in a proliferation test performed on established tumor cell lines (D. A. Scuderio et al. Cancer Res. 1988, 48: 4827-4833).
(§2) The test used determines the cellular dehydrogenase activity and makes it possible to determine cell viability and determine cell number indirectly.
(§3) The cell lines used are the human cervical carcinoma cell line KB/HeLa (ATCC CCL17), the ovarian adenocarcinoma cell line SKOV-3 (ATCC HTB77), the human glioblastoma cell line SF-268 (NCI-503138) and the lung carcinoma cell line NCI-H460 (NCI-503473). In addition, an RKOp27 cell system was used for investigating the cell cycle-specific effect of the substance (M. Schmidt et al. Oncogene 2000, 19(20): 2423-9).

[2] = test system: human cervical carcinoma cell line KB/HeLa; assay: Proliferation test (cellular dehydrogenase activity), KB/HeLa; assay type: cell-based
Text: as §1, §2, §3

[3] = test system: RKOp27 human colon carcinoma cells, p27kiP1 induced; assay: Proliferation test, RKOp27 cell system with induced p27kiP1 expression; assay type: cell-based; conditions: RKOp27 with induced expression of p27kiP1, read-out: RKOP27ind EC50
Text: as §1, §2, §3
(§4) RKO is a human colon carcinoma line in which expression of the cell cycle inhibitor p27^kiP1 can be induced using the ecdysone expression system and lead to cell cycle arrest specifically in […].
(§5) By contrast, cell cycle-specific substances, such as, for example, tubulin inhibitors, are only cytotoxic when cells are not arrested and the cell cycle is passed through.

[4] = test system: RKOp27 human colon carcinoma cells; assay: Proliferation test, RKOp27 cell system without p27kiP1 expression; assay type: cell-based; conditions: RKOp27 without expression of p27kiP1
Text: as §1, §2, §3, §4, §5

[5] = test system: human glioblastoma cell line SF-268; assay: Proliferation test (cellular dehydrogenase activity), SF-268; assay type: cell-based
Text: as §1, §2, §3

porcine brain tubulin = test system: T1, porcine brain tubulin; assay: Inhibition of the polymerization of porcine brain tubulin (turbidimetric); assay type: biochemical; conditions: porcine brain tubulin with about 15% MAPs, GTP, 37° C.
T1 construct: In addition to tubulin, the protein used comprises about 15% of associated proteins (MAPs)
Description: b) In an in vitro test, the compounds 1, 2, 4 and 7 were tested for inhibition of the polymerization of porcine brain tubulin. In this test, tubulin purified by polymerization and depolymerization cycles is used (Shelanski et al. Proc. Natl. Acad. Sci. U.S.A. 1973, 70, 765-768 modified according to Vater et al. Acta Histochem. Suppl. 1986, 33, 123-129), which is polymerized by addition of GTP and heating to 37° C. In addition to tubulin, the protein used comprises about 15% of associated proteins (MAPs). The measurement values were determined turbidimetrically according to Gaskin et al. J. Mol. Biol. 89 (1974) 737-755.
Table 3 states the EC50 value of the polymerization inhibition.

[6] = test system: ovarian adenocarcinoma cell line SKOV-3; assay: Proliferation test (cellular dehydrogenase activity), SK-OV-3; assay type: cell-based; conditions: Homo sapiens
Text: as §1, §2, §3

bovine tubulin = assay: Inhibition of the polymerization of bovine tubulin (in vitro); assay type: biochemical; conditions: for Inhibition at 10 μg/ml [%]: tubulin with 30% associated proteins (MAPs), repeat values; for EC50 of polymerization inhibition of tubulin: bovine tubulin with 30% associated proteins (MAPs)
Text: In this test, tubulin purified by polymerization and depolymerization cycles is used, which is polymerized by addition of GTP and heating.
Table 1 states the %-inhibition values and Table 2 states the EC50 values of polymerization inhibition of tubulin with 30% associated proteins (MAPs).

murine P388 cell line = assay: XTT antiproliferative test, P388; assay type: cell-based; conditions: P388 wild type
Text: (§6) For further characterization, the compounds 6 and 7 according to the invention were investigated with regard to multidrug-resistant (MDR) cell lines as compared with the nonresistant wild-type cell lines.
(§7) The murine P388 cell line (methylcholanthrene-induced lymphoid neoplasm) [R. Supino et al.; Inst. Nazionale per lo Studio e las cura die Tumori; Milan)] and the doxorubicin-resistant P388 cell line (NSC-123127) were also included as test systems.

[7] = test system: doxorubicin-resistant P388 cell line; assay: XTT antiproliferative test, doxorubicin-resistant P388; assay type: cell-based, murine
Text: as §6, §7

murine cell line L1210 = assay: XTT antiproliferative test, L1210; assay type: cell-based; conditions: L1210 wild type
Text: as §6
(§8) The cell lines which were investigated are the murine cell line L1210 (ATCC CCL219), the acute myeloid leukaemia cell line LT12 (De Vries et al.; University Rotterdam) and the resistant lines L1210/VCR (Asta Medica Laboratory) and LT12/mdr (De Vries et al.; University Rotterdam).

[8] = test system: acute myeloid leukaemia cell line LT12; assay: XTT antiproliferative test, LT12; assay type: cell-based; conditions: LT12 wild type
Text: as §6, §8

SMILES | EC50 [1] [µg/mL] | melting point [°C] | EC50 [2] [µg/mL] | EC50 [3] [µg/mL] | EC50 [4] [µg/mL] | EC50 [5] [µg/mL] | EC50 [6] [µg/mL] | Inhibition at 10 μg/ml [%] (bovine tubulin) | also measured
O=C(C=C1c2ccccc2C(=O)c2ccccc21)c1cccs1 [Compound 11, 10-(2-oxo-2-thiophen-2-yl-ethylidene)-10H-anthracen-9-one] | 1.05 (≈ 3.32 µM) | 126 | 2.65 (≈ 8.38 µM) | > 3.16 |  |  |  |  | 
COc1ccc(N2CCN(C(=O)C=C3c4ccccc4C(=O)c4ccccc43)CC2)cc1 [Compound 5, 10-{2-[4-(4-methoxy-phenyl)-piperazin-1-yl]-2-oxo-ethylidene}-10H-anthracen-9-one] |  | 189 to 190 |  |  |  |  |  |  | 
COc1csc(C(=O)C=C2c3ccccc3C(=O)c3ccccc32)c1 [Compound 2, 10-[2-(4-methoxy-thiophen-2-yl)-2-oxo-ethylidene]-10H-anthracen-9-one] | 0.931 (≈ 2.69 µM) | 200 to 201 | 0.248 (≈ 0.716 µM) | > 3.16 | 0.802 (≈ 2.32 µM) | 0.331 (≈ 0.956 µM) | 0.416 (≈ 1.2 µM) |  | EC50 of the polymerization inhibition (porcine brain tubulin): 2.3 µg/mL
Cc1ccc(C(=O)C=C2c3ccccc3C(=O)c3ccccc32)cc1 [Compound 9, 10-(2-oxo-2-p-tolyl-ethylidene)-10H-anthracen-9-one] | 0.11 (≈ 0.339 µM) | 129 | 0.2 (≈ 0.617 µM) | > 3.16 | 0.09 (≈ 0.277 µM) | 0.2 (≈ 0.617 µM) | 0.13 (≈ 0.401 µM) | 98.3% and 99.8% and 100.0% | EC50 of polymerization inhibition of tubulin (bovine tubulin): 0.49 µg/mL
COc1cc(C(=O)C=C2c3ccccc3C(=O)c3ccccc32)cc(OC)c1OC [Compound 16, 10-[2-oxo-2-(3,4,5-trimethoxy-phenyl)-ethylidene]-10H-anthracen-9-one] |  | 151 to 152 |  |  |  |  |  | 65.0% and 65.5% and 61.9% | 
O=C(C=C1c2ccccc2C(=O)c2ccccc21)c1ccc(O)cc1 [Compound 10, 10-[2-(4-hydroxy-phenyl)-2-oxo-ethylidene]-10H-anthracen-9-one] | 1.34 (≈ 4.11 µM) | 211 to 212 | 2.65 (≈ 8.12 µM) | > 3.16 | 1.38 (≈ 4.23 µM) |  |  | 85.0% and 94.8% and 98.4% and 98.6% | EC50 of polymerization inhibition of tubulin (bovine tubulin): 4.87 µg/mL
COC(=O)C=C1c2ccccc2C(=O)c2ccccc21 [Compound 15, (10-oxo-10H-anthracen-9-ylidene)-acetic acid methyl ester] |  | 113 |  |  |  |  |  |  | 
COc1ccc(C(=O)C=C2c3ccccc3C(=O)c3ccccc32)cc1OC [Compound 6, 10-[2-(3,4-dimethoxy-phenyl)-2-oxo-ethylidene]-9(10H)-anthracenone] | 0.29 (≈ 0.783 µM) | 160 | 0.458 (≈ 1.24 µM) | > 3.16 | 0.24 (≈ 0.648 µM) |  |  | 68.9% and 86.1% and 99.0% | IC50 (murine P388 cell line; Mus musculus, P388, XTT): 0.35 µg/mL (≈ 0.945 µM); P388 IC50 (murine P388 cell line; XTT): 0.39 µg/mL; IC50 ([7]; Mus musculus, P388, XTT, read-out: P388ADR IC50): 0.25 µg/mL (≈ 0.675 µM); P388ADR IC50 ([7]; XTT): 0.49 µg/mL; IC50 (murine cell line L1210; Mus musculus, L1210, XTT): 0.32 µg/mL (≈ 0.864 µM); L1210 IC50 (murine cell line L1210; XTT): 0.35 µg/mL; IC50 ([8]; Rattus norvegicus, LT12, XTT): 0.1 µg/mL (≈ 0.27 µM); LT12 IC50 ([8]; XTT): 0.17 µg/mL
COc1ccc(C(=O)C=C2c3ccccc3C(O)c3ccccc32)cc1 (stereo not drawn) [Compound 4, 2-(10-hydroxy-10H-anthracen-9-ylidene)-1-(4-methoxy-phenyl)-ethanone] | 0.203 (≈ 0.593 µM) | 169 to 172 | 0.181 (≈ 0.529 µM) | > 3.16 | 0.108 (≈ 0.315 µM) | 0.227 (≈ 0.663 µM) | 0.171 (≈ 0.499 µM) |  | EC50 of the polymerization inhibition (porcine brain tubulin): 1.2 µg/mL
